{"source": "patent US12049439B2", "about": "(OrsoBio, Inc., priority 2018, dated 2024)", "data": [{"tested_on": "PC-3 cells", "test": "PC-3 Oxygen Rate Consumption (OCR) Assay", "assay_type": "cell-based", "conditions": "Homo sapiens, 0.05 h, medium with 2% FBS, OCR at 3-min post-injection normalized to % increase over DMSO-treated cells, concentration for half-maximal OCR increase, read-out: EC50-PC3-OCR-FBS-3min", "experimental": "PC-3 Oxygen Rate Consumption (OCR) Assay Procedure:\nOne day before the assay, PC-3 cells were seeded at 2.5×10^4 cells/160 μL/well in a 96-well XFe96 cell plate, part of a FlexPak containing a cell plate and a cartridge (Agilent, Sunnyvale, CA). The cells were incubated overnight at 37° C. in a 5% CO2 and 90% humidity incubator with F12K culture medium (ThermoFisher Scientific/Invitrogen, Grand Island, NY) containing 10% FBS and 1% penicillin/streptomycin. On the day of the assay, the cells were washed twice with 300 µL/well Medium A [XF assay medium (Agilent) supplemented 10 mM glucose, 1 mM pyruvate, and 2% fetal bovine serum (FBS)], and incubated with 175 µL/well Media A for 1 hr in a 37° C., non-CO2 incubator prior to the measurement of cellular respiration. Compounds of interests were prepared in 1:2 serial dilutions with 100% DMSO and then further diluted into 8× working stock with Media A prior to being loaded to Injection Port A on a XFe96 Analyzer (Agilent). Six replicates were used for each treatment. The cartridge was calibrated in the XFe96 Analyzer 30 minute prior to the measurement of cellular respiration. Basal levels of OCR were measured three times, each using a “3-minute mixing/3-minute measurement” program. The compound effect was measured immediately after compound injection from Injection Port A, and OCR was monitored continuously 10 times, each time using a “1-minute mixing/2-minute measurement” program for a total of 30 minutes post compound injection. The level of OCR at 3-min post-injection was normalized to % increase over DMSO-treated cells. The concentration of compound required to reach the half-maximal OCR increase was defined as EC50 Table 2 contains PC3 OCR EC50 values for the compounds disclosed.", "units": {"EC50": "µM"}, "values": [{"smiles": "O=C(NC12CC(C(F)(F)F)(C1)C2)c1ccc(C(F)(F)F)cc1NS(=O)(=O)c1ccc(N2CCS(=O)(=O)CC2)cc1", "note": "[Example 106, 2-((4-(1,1-dioxidothiomorpholino)phenyl)sulfonamido)-4-(trifluoromethyl)-N-(3-(trifluoromethyl)bicyclo[1.1.1]pentan-1-yl)benzamide]", "EC50": 18.8}, {"smiles": "COc1ccc(C(=O)NC23CC(C(F)(F)F)(C2)C3)c(NS(=O)(=O)c2ccc(S(C)(=O)=O)cc2)c1", "note": "[Example 88, 4-methoxy-2-((4-(methylsulfonyl)phenyl)sulfonamido)-N-(3-(trifluoromethyl)bicyclo[1.1.1]pentan-1-yl)benzamide]", "EC50": 26.3}, {"smiles": "CC(C)(C)S(=O)(=O)Nc1cc(C#N)ccc1C(=O)NC12CC(C(F)(F)F)(C1)C2", "note": "[Example 99, 4-cyano-2-((1,1-dimethylethyl)sulfonamido)-N-(3-(trifluoromethyl)bicyclo[1.1.1]pentan-1-yl)benzamide]", "EC50": 1.18}, {"smiles": "CS(=O)(=O)c1ccc(S(=O)(=O)Nc2cc(F)ccc2C(=O)NC23CC(c4ccccc4)(C2)C3)cc1", "note": "[Example 12, 4-fluoro-2-((4-(methylsulfonyl)phenyl)sulfonamido)-N-(3-phenylbicyclo[1.1.1]pentan-1-yl)benzamide]", "EC50": 6.88}, {"smiles": "Cc1ncc(S(=O)(=O)Nc2cc(C(F)(F)F)ccc2C(=O)NC23CCC(C#N)(CC2)CC3)s1", "note": "[Example 76, N-(4-cyanobicyclo[2.2.2]octan-1-yl)-2-((2-methylthiazole)-5-sulfonamido)-4-(trifluoromethyl)benzamide]", "EC50": 9.19}, {"smiles": "O=C(NC12CC(C(F)(F)F)(C1)C2)c1cc(C(F)(F)F)ccc1NS(=O)(=O)C1CCS(=O)(=O)CC1", "note": "[Example 162, 2-((1,1-dioxidotetrahydro-2H-thiopyran)-4-sulfonamido)-5-(trifluoromethyl)-N-(3-(trifluoromethyl)bicyclo[1.1.1]pentan-1-yl)benzamide]", "EC50": 34.1}, {"smiles": "O=C(NC12CC(C(F)(F)F)(C1)C2)c1ccc(C(F)(F)F)cc1NS(=O)(=O)c1ccc(-c2ncccn2)cc1", "note": "[Example 101, 2-((4-(pyrimidin-2-yl)phenyl)sulfonamido)-4-(trifluoromethyl)-N-(3-(trifluoromethyl)bicyclo[1.1.1]pentan-1-yl)benzamide]", "EC50": 1.18}, {"smiles": "CS(=O)(=O)Nc1ccc(C(F)(F)F)cc1C(=O)NC12CC(C(F)(F)F)(C1)C2", "note": "[Example 166, 2-(methylsulfonamido)-5-(trifluoromethyl)-N-(3-(trifluoromethyl)bicyclo[1.1.1]pentan-1-yl)benzamide]", "EC50": 1.07}, {"smiles": "CS(=O)(=O)c1ccc(S(=O)(=O)Nc2cc(F)ccc2C(=O)NC23CC(F)(C2)C3)cc1", "note": "[Example 21, 4-fluoro-N-(3-fluorobicyclo[1.1.1]pentan-1-yl)-2-((4-(methylsulfonyl)phenyl)sulfonamido)benzamide]", "EC50": 38.9}, {"smiles": "CSCCOc1ccc(S(=O)(=O)Nc2cc(C(F)(F)F)ccc2C(=O)NC23CC(C(F)(F)F)(C2)C3)cc1", "note": "[Example 113, 2-((4-(2-(methylthio)ethoxy)phenyl)sulfonamido)-4-(trifluoromethyl)-N-(3-(trifluoromethyl)bicyclo[1.1.1]pentan-1-yl)benzamide]", "EC50": 0.697}, {"smiles": "O=C(NC12CC(C(F)(F)F)(C1)C2)c1ccc(C(F)(F)F)cc1NS(=O)(=O)c1ccc(OC(F)(F)F)cc1", "note": "[Example 6, 2-((4-(trifluoromethoxy)phenyl)sulfonamido)-4-(trifluoromethyl)-N-(3-(trifluoromethyl)bicyclo[1.1.1]pentan-1-yl)benzamide]", "EC50": 0.267}, {"smiles": "CC1(S(=O)(=O)Nc2cc(C(F)(F)F)ccc2C(=O)NC23CC(C2)C3)CC1", "note": "[Example 66, N-(bicyclo[1.1.1]pentan-1-yl)-2-((1-methylcyclopropane)-1-sulfonamido)-4-(trifluoromethyl)benzamide]", "EC50": 8.35}, {"smiles": "CC1(S(=O)(=O)Nc2cc(C(F)(F)F)ccc2C(=O)NC23CC(C#N)(C2)C3)CC1", "note": "[Example 64, N-(3-cyanobicyclo[1.1.1]pentan-1-yl)-2-((1-methylcyclopropane)-1-sulfonamido)-4-(trifluoromethyl)benzamide]", "EC50": 5.22}, {"smiles": "CCS(=O)(=O)Nc1ccc(C(F)(F)F)cc1C(=O)NC12CCC(C#N)(CC1)CC2", "note": "[Example 120, N-(4-cyanobicyclo[2.2.2]octan-1-yl)-2-(ethylsulfonamido)-5-(trifluoromethyl)benzamide]", "EC50": 8.01}, {"smiles": "NC(=O)c1ccc(S(=O)(=O)Nc2cc(C(F)(F)F)ccc2C(=O)NC23CC(C2)C3)cc1", "note": "[Example 52, N-(bicyclo[1.1.1]pentan-1-yl)-2-((4-carbamoylphenyl)sulfonamido)-4-(trifluoromethyl)benzamide]", "EC50": 200}, {"smiles": "N#CC12CCC(NC(=O)c3cc(C(F)(F)F)ccc3NS(=O)(=O)N3CC(OC(F)F)C3)(CC1)CC2", "note": "[Example 224, N-(4-cyanobicyclo[2.2.2]octan-1-yl)-2-((3-(difluoromethoxy)azetidine)-1-sulfonamido)-5-(trifluoromethyl)benzamide]", "EC50": 2.42}, {"smiles": "CS(=O)(=O)CCS(=O)(=O)Nc1cc(OC(F)(F)F)ccc1C(=O)NC12CCC(C(F)(F)F)(CC1)CC2", "note": "[Example 248, 2-((2-(methylsulfonyl)ethyl)sulfonamido)-4-(trifluoromethoxy)-N-(4-(trifluoromethyl)bicyclo[2.2.2]octan-1-yl)benzamide]", "EC50": 5.7}, {"smiles": "N#CC12CCC(NC(=O)c3ccc(Cl)cc3NS(=O)(=O)CCC(F)(F)F)(CC1)CC2", "note": "[Example 135, 4-chloro-N-(4-cyanobicyclo[2.2.2]octan-1-yl)-2-((3,3,3-trifluoropropyl)sulfonamido)benzamide]", "EC50": 1.62}, {"smiles": "CC(C)(C)S(=O)(=O)Nc1cc(S(F)(F)(F)(F)F)ccc1C(=O)NC12CCC(C#N)(CC1)CC2", "note": "[Example 161, N-(4-cyanobicyclo[2.2.2]octan-1-yl)-2-((1,1-dimethylethyl)sulfonamido)-4-(pentafluoro-λ^6-sulfanyl)benzamide]", "EC50": 1.09}, {"smiles": "CS(=O)(=O)Nc1ccc(Cl)cc1C(=O)NC12CCC(C(F)(F)F)(CC1)CC2", "note": "[Example 208, 5-chloro-2-(methylsulfonamido)-N-(4-(trifluoromethyl)bicyclo[2.2.2]octan-1-yl)benzamide]", "EC50": 10.6}, {"smiles": "CN(C)S(=O)(=O)c1ccc(S(=O)(=O)Nc2cc(C(F)(F)F)ccc2C(=O)NC23CC(C#N)(C2)C3)cc1", "note": "[Example 42, N-(3-cyanobicyclo[1.1.1]pentan-1-yl)-2-((4-(N,N-dimethylsulfamoyl)phenyl)sulfonamido)-4-(trifluoromethyl)benzamide]", "EC50": 27.5}, {"smiles": "N#Cc1ccc(NS(=O)(=O)C2CC2)c(C(=O)NC23CCC(C#N)(CC2)CC3)c1", "note": "[Example 124, 5-cyano-N-(4-cyanobicyclo[2.2.2]octan-1-yl)-2-(cyclopropanesulfonamido)benzamide]", "EC50": 79.4}, {"smiles": "N#Cc1ccc(S(=O)(=O)Nc2cc(C(F)(F)F)ccc2C(=O)NC23CC(C(F)(F)F)(C2)C3)cc1", "note": "[Example 158, 2-((4-cyanophenyl)sulfonamido)-4-(trifluoromethyl)-N-(3-(trifluoromethyl)bicyclo[1.1.1]pentan-1-yl)benzamide]", "EC50": 1.43}, {"smiles": "CS(=O)(=O)Nc1ccc(F)cc1C(=O)NC12CC(C(F)(F)F)(C1)C2", "note": "[Example 140, 5-fluoro-2-(methylsulfonamido)-N-(3-(trifluoromethyl)bicyclo[1.1.1]pentan-1-yl)benzamide]", "EC50": 36.1}, {"smiles": "N#CC12CCC(NC(=O)c3cc(C(F)(F)F)ccc3NS(=O)(=O)C3CC3)(CC1)CC2", "note": "[Example 125, N-(4-cyanobicyclo[2.2.2]octan-1-yl)-2-(cyclopropanesulfonamido)-5-(trifluoromethyl)benzamide]", "EC50": 12.4}, {"smiles": "O=C(NC12CCC(C(F)(F)F)(CC1)CC2)c1cc(OC(F)(F)F)ccc1NS(=O)(=O)C1CCS(=O)(=O)CC1", "note": "[Example 210, 2-((1,1-dioxidotetrahydro-2H-thiopyran)-4-sulfonamido)-5-(trifluoromethoxy)-N-(4-(trifluoromethyl)bicyclo[2.2.2]octan-1-yl)benzamide]", "EC50": 4.35}, {"smiles": "N#CC12CCC(NC(=O)c3ccc(SC(F)(F)F)cc3NS(=O)(=O)C3(C#N)CC3)(CC1)CC2", "note": "[Example 226, N-(4-cyanobicyclo[2.2.2]octan-1-yl)-2-((1-cyanocyclopropane)-1-sulfonamido)-4-((trifluoromethyl)thio)benzamide]", "EC50": 7.1}, {"smiles": "CC(C)(C)c1ccc(S(=O)(=O)Nc2cc(C(F)(F)F)ccc2C(=O)NC23CC(C#N)(C2)C3)cc1", "note": "[Example 7, 2-((4-(tert-butyl)phenyl)sulfonamido)-N-(3-cyanobicyclo[1.1.1]pentan-1-yl)-4-(trifluoromethyl)benzamide]", "EC50": 0.813}, {"smiles": "CS(=O)(=O)Nc1ccc(C(F)(F)F)cc1C(=O)NC12CCC(C(F)(F)F)(CC1)CC2", "note": "[Example 183, 2-(methylsulfonamido)-5-(trifluoromethyl)-N-(4-(trifluoromethyl)bicyclo[2.2.2]octan-1-yl)benzamide]", "EC50": 0.824}]}]}
